# Measurements reported in patent US7425635B2, “Prodrugs and conjugates of thiol- and selenol-containing compounds and methods of use thereof” (University of Utah Research Foundation, priority 1997, dated 2008).
# Read-outs that look alike come from different tables or passages of the source. Marks after values point to notes of the source that are not given here.
# Experiments:
# [1] = sALT (hepatotoxicity) after 7 daily ip doses; type: in vivo; set-up: unit not given here; conditions: 7 daily doses ip, 1.25 mg Se/kg, with corn oil; untreated mice 37.5 ± 2.9
# Description: (§1) Many of the mRNA changes seen with a single dose were not sustained with multiple dosing. Changes in Ugt transcripts after multiple dosing were noticeably absent. Unique to BSCA among the four new compounds investigated was its ability to induce Gst-alpha, Gst-mu and GPx mRNAs. For the Gst-alpha transcripts, which appeared elevated by corn oil, the BSCA increase was much greater than the vehicle alone (8-fold versus 2-fold) and was statistically significant (p<0.05). BSCA shared with PhOHSCA the ability to elevate mEH mRNA.
# Gst-alpha = assay: Northern blot of liver Gst-alpha mRNA after ip dosing; type: in vivo, mice; conditions: mean ± SEM
# Experimental: (§2) Linking efficacy to biochemical parameters and a mechanism was limited in the initial study by only two parameters, [Se] and GPx activity. The in-vivo effects of selenazolidine compounds were then evaluated using, in addition to GPx, glutathione S-transferases (GSTs), quinone oxidoreductases (NQORs), UDP-glucuronosyltransferases (UGTs), and microsomal epoxide hydrolase (mEH). To investigate transcriptional changes of these classes of enzymes, it was necessary to develop a battery of cDNA probes for use in Northern blot analysis of RNA extracted from treated animals (Table 2).
# (§3) Whether the selenaproline compounds had the ability to up-regulate the transcription of Phase II and/or other “protective” enzymes was first evaluated following a single dose of each (Table 3). […] The experiment was repeated but with a 7-day treatment regimen (Table 4), the time period for which the compounds were given in the diet before NNK administration in the tumor experiment reported in Table 1. […] With multiple doses, SCA induced Ugt1a9, an mRNA that was not changed with a single dose. […] The elevation in the Gst-mu transcript was unique to multiple OSCA treatment. The elevation of the GST-alpha mRNA was also seen with SCA treatment. Microsomal epoxide hydrolase mRNA was robustly elevated by multiple doses of all three selenaproline compounds, an effect not anticipated from the single dose experiment where not even minor changes were apparent.
# Ugt1a1 = assay: Northern blot of liver Ugt1a1 mRNA after ip dosing; type: in vivo, mice; conditions: mean ± SEM
# Experimental: as §2, §3
# Ugt1a9 = assay: Northern blot of liver Ugt1a9 mRNA after ip dosing; type: in vivo, mice; conditions: for Ugt1a9 mRNA: mean ± SEM
# Experimental: as §2, §3
# mEH = assay: Northern blot of liver mEH mRNA after ip dosing; type: in vivo, mice; conditions: mean ± SEM
# Experimental: as §2, §3
# GPx [2] = assay: Northern blot of liver GPx mRNA after ip dosing; type: in vivo, mice; conditions: mean ± SEM
# Experimental: as §2, §3
# Gst-mu = assay: Northern blot of liver Gst-mu mRNA after ip dosing; type: in vivo, mice; conditions: mean ± SEM
# Experimental: as §2, §3
# Ugt1a6 = assay: Northern blot of liver Ugt1a6 mRNA after ip dosing; type: in vivo, mice; conditions: mean ± SEM
# Experimental: as §2, §3
# [3] = tested on: 'protective' enzyme mRNAs; assay: Northern blot of 'protective' enzyme mRNAs (all probes) after ip dosing; type: in vivo, mice; conditions: 7 daily doses ip, with corn oil
# Experimental: as §2, §1
# E. coli AB1157 [4] = assay: Toxicity in E. coli AB1157 (colony forming ability); type: cell-based
# Experimental: (§4) A well characterized bacterial system was used as an initial screen for radioprotective activity of the novel compounds. A single colony of the bacteria, growing on a plate of LB medium (10 g tryptone, 5 g yeast extract, plus 5 g NaCl in 1 L water), was inoculated into 2 mL LB and incubated overnight. 20 mL LB medium were then inoculated with 600 μL of the overnight culture, and incubated with shaking at 37° C., 250 rpm. The cells were collected and washed with phosphate buffered saline. At this point the bacteria could be irradiated, treated with drug, etc., as outlined below. After dilution of the treated cells to 100 cells per 100 μL, they are plated out and incubated overnight. Cell viability is then measured by colony forming ability.
# The toxicity of the compounds of interest in this system was explored.
# E. coli AB1157 [5] = assay: Radioprotection in E. coli AB1157; type: cell-based; conditions: E. coli AB1157, agent 1 hour before irradiation at 0.6 kGy
# Experimental: Radioprotection in E. coli AB1157
# as §4
# Growth curves were generated for the bacteria in the absence of any treatment to provide experience with basic handling as well as important baseline information. The radiation dose response of the system was investigated irradiating bacterial cultures in a Shepherd Mark I ^137Cs irradiator over a dose range of 0 to 1 kGy. The dose-response curves are linear and reproducible from day to day.
# Radioprotection experiments were also conducted in the bacterial system. […] Surviving fraction compared to that seen in control (untreated) cells, which were not irradiated, was then calculated.
# GPx [6] = assay: Hepatic and RBC (tButylOOH) GPx activity in four-month feeding study; type: in vivo; conditions: mice, diet 15 ppm Se, NNK
# Experimental: Three novel selenazolidines, 2-methyl-, 2-oxo- and 2-unsubstituted (i.e., selenaproline) selenazolidine-4[R]-carboxylic acid (MSCA, OSCA, and SCA respectively) that had been synthesized as prodrugs of selenocysteine were evaluated for their potential to act as cancer chemopreventive agents. [Se] and GPx activity were evaluated.
# (§5) Where indicated, mice (16 g) were given diets fortified with SCA, MSCA or OSCA (15 ppm Se) for 1 week prior to NNK (10 umol, ip). Two other groups received the unmodified AIN-76A diet, with and without NNK administration. All groups were maintained on their pretreatment diet until the animals were sacrificed after 16 weeks. Liver GPx activity is expressed as μmol NADPH oxidized [in regenerating GSH]/min/mg 10,000 g×20 min supernatant protein; RBC activity as μmol/min/mg RBC lysate hemoglobin.
# [7] = Body weight gain and liver weight in four-month feeding study; type: in vivo; conditions: mice, diet 15 ppm Se, NNK
# Experimental: as §5
# GST = assay: Hepatic cytosolic GST (CDNB) activity after 7 daily ip doses; type: in vivo, mice; conditions: 7 daily doses ip, hepatic cytosol; naive 5248 ± 503
# GPx [8] = assay: Hepatic cytosolic GPx (H202) activity after 7 daily ip doses; type: in vivo, mice; conditions: 7 daily doses ip, hepatic cytosol; naive 894 ± 36
# [9] = 1 dose ip, 1.25 mg Se/kg in corn oil, liver RNA 24 hours after dosing
# [10] = 7 daily doses ip, 1.25 mg Se/kg, with corn oil, liver RNA 24 hours after the last dose
# [11] = E. coli AB1157, cell viability by colony forming ability
# [12] = 1 dose ip, 1.25 mg Se/kg, liver RNA 24 hours after dosing
# [13] = 7 daily doses ip, 1.25 mg Se/kg, liver RNA 24 hours after the last dose
compound,measurement,setting,value
2-(2-hydroxyphenyl)-SCA [PhOHSCA],sALT,[1],42.4 ± 3.0
same,Gst-alpha mRNA,Gst-alpha; [9],1.49 ± 0.22 fold change from naive
same,Gst-alpha mRNA,Gst-alpha; [10],1.91 ± 0.71 fold change from naive
same,Ugt1a1 mRNA,Ugt1a1; [10],0.77 ± .04 fold change from naive
same,Ugt1a9 mRNA,Ugt1a9; [9],1.65 ± 0.32 fold change from naive
same,Ugt1a9 transcript expression compared to the corn oil effect,"Ugt1a9; 1 dose ip, in corn oil, comparison with corn oil alone",significantly reduced
same,Ugt1a9 mRNA,Ugt1a9; [10],1.06 ± .14 fold change from naive
same,mEH mRNA,mEH; [9],1.38 ± 0.48 fold change from naive
same,GPx mRNA,GPx [2]; [10],1.51 ± 0.50 fold change from naive
same,Gst-mu mRNA,Gst-mu; [9],1.18 ± 0.32 fold change from naive
same,Gst-mu mRNA,Gst-mu; [10],1.54 ± 0.23 fold change from naive
same,Ugt1a6 mRNA,Ugt1a6; [10],0.99 ± 0.14 fold change from naive
"O=C(O)C1C[Se]C(C2CCCCC2)N1 (mixture of isomers) [ChSCA, 2-cyclohexyl-SCA]",sALT,[1],40.0 ± 1.7
same,Gst-alpha mRNA,Gst-alpha; [9],1.73 ± 0.20 fold change from naive
same,Gst-alpha mRNA,Gst-alpha; [10],1.99 ± 0.77 fold change from naive
same,Ugt1a1 mRNA,Ugt1a1; [10],1.20 ± 0.17 fold change from naive
same,Ugt1a9 mRNA,Ugt1a9; [9],3.04 ± 0.55 fold change from naive
same,Ugt1a9 mRNA,"Ugt1a9; 1 dose ip, 1.25 mg Se/kg in corn oil, liver RNA 24 hours after dosing, listed as CnSCA",statistically elevated
same,Ugt1a9 mRNA,Ugt1a9; [10],1.16 ± 0.13 fold change from naive
same,mEH mRNA,mEH; [9],1.34 ± 0.41 fold change from naive
same,mEH mRNA,mEH; [10],1.31 ± 0.19 fold change from naive
same,GPx mRNA,GPx [2]; [9],1.20 ± 0.15 fold change from naive
same,GPx mRNA,GPx [2]; [10],2.26 ± 0.66 fold change from naive
same,Gst-mu mRNA,Gst-mu; [9],1.20 ± 0.15 fold change from naive
same,Gst-mu mRNA,Gst-mu; [10],1.32 ± 0.21 fold change from naive
same,Ugt1a6 mRNA,Ugt1a6; [10],1.22 ± 0.17 fold change from naive
same,Induction of 'protective' enzyme mRNAs (any),[3],failed to induce any mRNAs
"O=C(O)C1C[Se]C(c2ccccc2)N1 (mixture of isomers) [PhSCA, 2-phenyl-SCAS]",sALT,[1],37.3 ± 1.4
same,Gst-alpha mRNA,Gst-alpha; [9],0.63 ± 0.14 fold change from naive
same,Gst-alpha mRNA,Gst-alpha; [10],2.29 ± 0.68 fold change from naive
same,Ugt1a1 mRNA,Ugt1a1; [9],1.41 ± 0.30 fold change from naive
same,Ugt1a1 mRNA,Ugt1a1; [10],1.32 ± 0.12 fold change from naive
same,Ugt1a9 mRNA,Ugt1a9; [9],2.14 ± 0.54 fold change from naive
same,Ugt1a9 mRNA,Ugt1a9; [10],0.83 ± 0.08 fold change from naive
same,mEH mRNA,mEH; [9],0.98 ± 0.27 fold change from naive
same,mEH mRNA,mEH; [10],0.80 ± 0.15 fold change from naive
same,GPx mRNA,GPx [2]; [9],0.74 ± 0.16 fold change from naive
same,GPx mRNA,GPx [2]; [10],1.46 ± 0.35 fold change from naive
same,Gst-mu mRNA,Gst-mu; [9],0.74 ± 0.16 fold change from naive
same,Gst-mu mRNA,Gst-mu; [10],1.01 ± 0.27 fold change from naive
same,Ugt1a6 mRNA,Ugt1a6; [9],1.78 ± 0.54 fold change from naive
same,Ugt1a6 mRNA,Ugt1a6; [10],0.96 ± 0.04 fold change from naive
same,Induction of 'protective' enzyme mRNAs (any),[3],failed to induce any mRNAs
"NCCCN1CCSC1=O [2-oxo prodrug, 3-(3-Aminopropyl)-2-thiazolidinone]",Toxicity in the bacterial system,E. coli AB1157 [4]; [11],neither WR-1065 nor its 2-oxo prodrug produced any toxicity
"O=C1NCCS1 [2-oxocysteamine prodrug, 2-Thiazolidinone]",Toxicity in the bacterial system,E. coli AB1157 [4]; [11],completely eliminated the profound toxicity observed with cysteamine itself
"NC1CCSC1=O (stereo not shown) [HCTL, homocysteine thiolactone]",Radioprotection (surviving fraction),E. coli AB1157 [5],greatest amount of protection
"O=C1N[C@H](C(=O)O)C[Se]1 [OSCA, 2-Oxoselenazolidine-4(R)-carboxylic acid]",Gst-alpha mRNA,Gst-alpha; [12],1.61 ± 0.53 fold change from naive
same,RBC (tButylOOH) GPx,GPx [6]; RBC,281 ± 24 μmol/min/mg RBC lysate hemoglobin
same,Hepatic (tButylOOH) GPx,GPx [6]; liver,"518 ± 59 μmol NADPH oxidized/min/mg 10,"
same,Body wt gain (%),[7],39.9* %
same,Liver weight,[7],1.02 ± 0.02 g
same,mEH mRNA,mEH; [12],0.88 ± 0.19 fold change from naive
same,mEH mRNA,mEH; [13],2.91 ± 1.48 fold change from naive
same,GST (CDNB) activity,GST,"6887 ± 1142 nmol/mg cytosol (100,000 g supernatant) protein/min"
same,GPx (1.5 kb) mRNA,GPx [2]; [12],0.80 ± 0.22 fold change from naive
same,GPx mRNA,GPx [2]; [13],1.13 ± 0.39 fold change from naive
same,GPx (H202) activity,GPx [8],"880 ± 72 nmol/mg cytosol (100,000 g supernatant) protein/min"
same,Gst-mu mRNA,Gst-mu; [12],1.38 ± 0.33 fold change from naive
"NCCCNCCS [WR-1065, reference compound]",Toxicity in the bacterial system,E. coli AB1157 [4]; [11],neither WR-1065 nor its 2-oxo prodrug produced any toxicity
same,Radioprotection (surviving fraction),E. coli AB1157 [5],greatest amount of protection
"NCCS [cysteamine, reference compound]",Toxicity in the bacterial system,E. coli AB1157 [4],profound toxicity
